Source: patent publication US4085224A, “Method of increasing feed utilization” (Eli Lilly and Company, priority 1976, dated 1978)

Legend:
rumen fluid = assay: in vitro rumen fluid volatile fatty acid production; design: species or system steer; details: 1 ppm in rumen fluid, 16 hours at 38° C.
From the text: As discussed hereinabove, efficiency of carbohydrate utilization in ruminants is increased by treatments which stimulate the amimal's rumen flora to produce propionate compounds rather than acetate or butyrate compounds. The efficiency of feed use can be monitored by observing the production and concentration of propionate compounds in the rumen, using the following methods:
Remen fluid is obtained from a steer with a surgically-installed fistula opening into the rumen. The steer is maintained on a high-grain ration. A sample of rumen fluid is strained through four layers of cheesecloth, and the filtrate is collected. The particulate matter retained by the cheesecloth is resuspended in enough physiological buffer to return it to the original volume of the rumen fluid, and this suspension is strained again. The buffer used has the following composition:
The two filtrates are combined and allowed to stand until particulate matter separates to the top. The clear layer is separated, diluted with the same buffer (1:1) and then adjusted to between pH 6.8 to 7.0.
The diluted rumen fluid (10 ml) is placed in a 25-ml flask with 40 mg of the above-described feed, an additional 1 mg of soybean protein, and the compound to be tested. Four replicate flasks are used per treatment. Two sets of four control flasks each are also employed. A zero-time control and an incubated 16-hour control are used. All test flasks are incubated for 16 hours at 38° C. […] The samples are allowed to settle, and the supernatants are analyzed by gas chromatography for propionate, acetate, and butyrate compounds.

[1] = system: Staphylococcus aureus (H-Heatley) NRRL B-314; assay: turbidometric assay on semiautomated system (Autoturb), relative gram-positive activity; type: cell-based; details: relative to A-28086 factor A (standard); nutrient broth pH 7, four hours at 37° C.
Description: The C2 -C6 -acyl ester derivatives of A-28086 factor A also have antibacterial and antifungal activity. In one aspect, these derivatives have increased gram-positive activity. The relative gram-positive activities of certain of these derivatives were compared with the activity of factor A. The compounds were tested by turbidometric assay on a semiautomated system (Autoturb® microbiological assay system, Elanco) described by N. R. Kuzel and F. W. Kavanaugh in J. Pharmaceut. Sci. 60 (5), 764 and 767 (1971). In testing the A-28086 antibiotics, the following test parameters were used: Staphylococcus aureus (H-Heatley) NRRL B-314 in a nutrient broth medium (pH 7), incubated for four hours at 37° C. Test samples and the standard were dissolved in methanol-water (10:90). The standard, A-28086 factor A, was presented to the Autoturb® carrousel at concentrations of 2, 3, 4, and 5 mcg/ml. Test compounds were diluted to contain approximately 3 or 4 mcg of activity per ml, as presented to the carrousel. The relative activities of test compounds, as compared to that of the standard, are given below: […]

Row | Compound | Ratio of Treated to Control, Molar % acetate (rumen fluid) | Ratio of Treated to Control, Molar % butyrate (rumen fluid) | Ratio of Treated to Control, Molar % propionate (rumen fluid) | Ratio of Treated to Control, Total VFA mM/l (rumen fluid) | Relative G+ Activity [1]
1 | CCCC(=O)OC1C=CC2(OC(C(CC)C(=O)C(C)C(O)C(C)C3OC(C(CC)C(=O)O)C(C)CC3C)C(C)CC2C)OC12CCC(C)(C1CCC(O)(CC)C(C)O1)O2 (stereo not shown) | 0.91 | 0.81 | 1.56 | 1.19 | 8
2 | CCCCCC(=O)OC1C=CC2(OC(C(CC)C(=O)C(C)C(O)C(C)C3OC(C(CC)C(=O)O)C(C)CC3C)C(C)CC2C)OC12CCC(C)(C1CCC(O)(CC)C(C)O1)O2 (stereo not shown) | 0.86 | 0.97 | 1.57 | 0.99 | 20
3 | CCC(=O)OC1C=CC2(OC(C(CC)C(=O)C(C)C(O)C(C)C3OC(C(CC)C(=O)O)C(C)CC3C)C(C)CC2C)OC12CCC(C)(C1CCC(O)(CC)C(C)O1)O2 (stereo not shown) | 0.90 | 0.68 | 1.73 | 1.25 | 7
4 | CCCCC(=O)OC1C=CC2(OC(C(CC)C(=O)C(C)C(O)C(C)C3OC(C(CC)C(=O)O)C(C)CC3C)C(C)CC2C)OC12CCC(C)(C1CCC(O)(CC)C(C)O1)O2 (stereo not shown) | 0.92 | 0.79 | 1.55 | 1.18 | 14
5 | CCC(C(=O)O)C1OC(C(C)C(O)C(C)C(=O)C(CC)C2OC3(C=CC(OC(C)=O)C4(CCC(C)(C5CCC(O)(CC)C(C)O5)O4)O3)C(C)CC2C)C(C)CC1C (stereo not shown) [A-28086 factor A acetyl ester derivative] | 0.79 | 0.76 | 2.04 | 1.04 | 2.5
